Structures are written as SMILES.

The target in this experiment is c-Met (Homo sapiens, UniProt P08581). The experiment is described as follows: Ki determination for the inhibition of c-Met (standard radiometric kinase assay). It counts as biochemical. The settings on record: radiometric 33P-ATP assay, 1.0 nM c-Met, 35 μM ATP, 0.5 mg/mL polyE4Y, competitive tight-binding fit. As to the method: Ki Determination for the Inhibition of c-Met
Chain of c-Met (P08581 25-1390): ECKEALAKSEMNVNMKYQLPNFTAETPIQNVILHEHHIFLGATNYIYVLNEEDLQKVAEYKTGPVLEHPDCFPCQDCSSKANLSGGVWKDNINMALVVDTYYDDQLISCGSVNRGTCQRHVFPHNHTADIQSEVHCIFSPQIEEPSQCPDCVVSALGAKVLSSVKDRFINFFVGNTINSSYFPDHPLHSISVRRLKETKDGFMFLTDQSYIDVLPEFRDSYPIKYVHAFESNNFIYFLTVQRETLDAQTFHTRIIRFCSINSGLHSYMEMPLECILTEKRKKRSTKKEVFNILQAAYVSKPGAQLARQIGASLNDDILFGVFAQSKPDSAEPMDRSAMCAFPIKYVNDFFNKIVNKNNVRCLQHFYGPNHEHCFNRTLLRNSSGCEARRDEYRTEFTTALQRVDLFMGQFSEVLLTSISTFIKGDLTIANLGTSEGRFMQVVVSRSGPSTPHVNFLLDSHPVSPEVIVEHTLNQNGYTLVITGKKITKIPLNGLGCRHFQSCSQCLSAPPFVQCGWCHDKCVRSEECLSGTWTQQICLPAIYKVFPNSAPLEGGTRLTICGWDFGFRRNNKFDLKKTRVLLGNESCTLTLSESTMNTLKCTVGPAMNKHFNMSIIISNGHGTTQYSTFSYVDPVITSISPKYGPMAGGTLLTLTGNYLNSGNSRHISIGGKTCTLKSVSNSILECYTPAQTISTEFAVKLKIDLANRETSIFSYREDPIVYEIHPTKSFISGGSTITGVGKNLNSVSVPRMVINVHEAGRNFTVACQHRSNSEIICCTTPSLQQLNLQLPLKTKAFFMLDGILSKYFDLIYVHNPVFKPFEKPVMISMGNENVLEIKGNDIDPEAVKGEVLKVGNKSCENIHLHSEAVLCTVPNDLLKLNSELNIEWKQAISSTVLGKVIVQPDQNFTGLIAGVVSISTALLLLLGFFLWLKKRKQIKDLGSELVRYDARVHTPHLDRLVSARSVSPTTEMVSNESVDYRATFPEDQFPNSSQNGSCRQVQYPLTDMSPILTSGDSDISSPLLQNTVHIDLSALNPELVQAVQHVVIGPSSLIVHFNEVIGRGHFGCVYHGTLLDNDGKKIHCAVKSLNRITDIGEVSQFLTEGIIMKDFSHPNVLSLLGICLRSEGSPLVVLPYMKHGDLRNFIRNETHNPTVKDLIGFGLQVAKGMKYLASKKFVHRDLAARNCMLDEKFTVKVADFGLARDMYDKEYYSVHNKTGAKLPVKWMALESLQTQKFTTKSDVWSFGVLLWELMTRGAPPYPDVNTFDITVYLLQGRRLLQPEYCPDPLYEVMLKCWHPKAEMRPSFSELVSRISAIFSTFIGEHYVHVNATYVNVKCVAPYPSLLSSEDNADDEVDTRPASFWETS
Compounds of the invention were screened for their ability to inhibit c-Met kinase activity using a standard radiometric assay. Briefly, in this kinase assay the transfer of the terminal ^33P-phosphate in ^33P-ATP to substrate polyE4Y is interrogated. The assay was carried out in 96-well plates to a final volume of 100 μL per well containing 1.0 nM c-Met, 100 mM HEPES (pH 7.5), 10 mM MgCl2, 25 mM NaCl, 0.01% BSA, 1 mM DTT, 0.5 mg/mL polyE4Y, and 35 μM ATP. Accordingly, compounds of the invention were dissolved in DMSO to make 10 mM initial stock solutions. Serial dilutions in DMSO were then made to obtain the final solutions for the assay. A 1.5 μL aliquot of DMSO or inhibitor in DMSO was added to each well. The reaction was initiated by the addition of ^33P-ATP and polyE4Y (obtained from Sigma). After 20 min, the reaction was quenched with 50 μL of 30% trichloroacetic acid (TCA) containing 4 mM ATP. The reaction mixture was transferred to the 0.66 mm GF filter plates (Corning) and washed three times with 5% TCA. Following the addition of 50 μL of Ultimate Gold™ high efficiency scintillant (Packard Bioscience), the samples were counted in a Packard TopCount NXT Microplate Scintillation and Luminescence Counter (Packard BioScience). The Ki values were calculated using Microsoft Excel Solver macros to fit the data to the kinetic model for competitive tight-binding inhibition.
As for `CN(Cc1cccnc1)Cc1nnc2ccc(Nc3cccc(Cl)c3)nn12` [Compound 1], the Ki (commonly a dissociation constant, usually derived from enzyme kinetics or from competition with a known ligand) is at most 250 nM.
Consider `Clc1cccc(Nc2ccc3nnc(COCc4cccnc4)n3n2)c1` [Compound 2, 3-(((pyridin-3-yl)methoxy)methyl)-N-(3-chlorophenyl)-[1,2,4]triazolo[4,3-b]pyridazin-6-amine], for which the Ki was at most 250 nM.
Regarding `Clc1cccc(Nc2ccc3nnc(CNCc4ccccn4)n3n2)c1` [Compound 3], the Ki is over 2500 nM.
`Clc1cccc(Nc2ccc3nnc(CNCc4cccnc4)n3n2)c1` [Compound 4] gave a Ki of over 2500 nM.
The figure for `O=C(Cc1nnc2ccc(Nc3cccc(Cl)c3)nn12)Nc1cnccn1` [Compound 5] is over 2500 nM; for `O=C(Cc1nnc2ccc(Nc3cccc(Cl)c3)nn12)NCc1cccnc1` [Compound 6] it is over 2500 nM.
The figure for `CN(C(=O)Cc1nnc2ccc(Nc3cccc(Cl)c3)nn12)c1ccccn1` [Compound 7] is over 2500 nM; for `Nc1cccnc1NC(=O)Cc1nnc2ccc(Nc3cccc(Cl)c3)nn12` [Compound 8] it is 250 to 2500 nM.
`C[C@@H](NC(=O)c1cccnc1)c1nnc2ccc(Nc3cccc(Cl)c3)nn12` [Compound 10] yielded a Ki of over 2500 nM.
The compound `CN(Cc1cccnc1N)Cc1nnc2ccc(Nc3cccc(Cl)c3)nn12` [Compound 11, N-(3-chlorophenyl)-3-(2-(N-((2-aminopyridin-3-yl)methyl)-N-(methyl)amino)methyl)-[1,2,4]triazolo[4,3-b]pyridazin-6-amine] came in with a Ki of 250 to 2500 nM.
`CN(Cc1nnc2ccc(Nc3cccc(Cl)c3)nn12)C(=O)c1cccnc1` [Compound 12]: the Ki was over 2500 nM.
On to `C[C@@H](NC(=O)c1cccnc1N)c1nnc2ccc(Nc3cccc(Cl)c3)nn12` [Compound 13], for which the Ki lay within 250 to 2500 nM.
The compound `C[C@@H](NC(=O)c1nccnc1N)c1nnc2ccc(Nc3cccc(Cl)c3)nn12` [Compound 14, N—((R)-1-(6-(3-chlorophenylamino)-[1,2,4]triazolo[4,3-b]pyridazin-3-yl)ethyl)-3-aminopyrazine-2-carboxamide] showed a Ki of at most 250 nM.
With `C[C@@H](NC(=O)Nc1cccnc1)c1nnc2ccc(Nc3cccc(Cl)c3)nn12` [Compound 15, 1-((R)-1-(6-(3-chlorophenylamino)-[1,2,4]triazolo[4,3-b]pyridazin-3-yl)ethyl)-3-(pyridin-3-yl)urea], the Ki fell in the range of 250 to 2500 nM.
Consider `C[C@@H](NC(=O)c1cnc2ccccc2n1)c1nnc2ccc(Nc3cccc(Cl)c3)nn12` [Compound 16], for which the Ki was in the range of 250 to 2500 nM.
For the compound `C[C@@H](NC(=O)c1cc(Br)cnc1N)c1nnc2ccc(Nc3cccc(Cl)c3)nn12` [Compound 17], the inhibition constant (Ki) is 250 to 2500 nM.
Compound `C[C@@H](NC(=O)c1nc(Br)cnc1N)c1nnc2ccc(Nc3cccc(Cl)c3)nn12` [Compound 18] displayed a Ki of 250 to 2500 nM.
`Clc1cccc(Nc2ccc3nnc(COCc4cnccn4)n3n2)c1` [Compound 19] had a Ki of over 2500 nM.
In turn, `Clc1cccc(Nc2ccc3nnc(CNc4n[nH]c5ncccc45)n3n2)c1` [Compound 20] registered a Ki of at most 250 nM.
`C[C@@H](NC(=O)c1nc(-c2ccccc2)cnc1N)c1nnc2ccc(Nc3cccc(Cl)c3)nn12` [Compound 21]: the inhibition constant (Ki) is at most 250 nM.
`CC(=O)Nc1ccc(-c2cnc(N)c(C(=O)N[C@H](C)c3nnc4ccc(Nc5cccc(Cl)c5)nn34)n2)cc1` [Compound 22] showed a Ki of at most 250 nM.
Consider `C[C@@H](NC(=O)c1cc(-c2ccccc2)cnc1N)c1nnc2ccc(Nc3cccc(Cl)c3)nn12` [Compound 23], for which the Ki was at most 250 nM.
In turn, `CC(=O)Nc1ccc(-c2cnc(N)c(C(=O)N[C@H](C)c3nnc4ccc(Nc5cccc(Cl)c5)nn34)c2)cc1` [Compound 24] yielded a Ki of at most 250 nM.
Turning to `CCC(C)Nc1ccc2nnc([C@@H](C)NC(=O)c3nc(-c4ccccc4)cnc3N)n2n1` (stereo partly shown) [Compound 25], the Ki lay in the range of 250 to 2500 nM.
`CCC(C)Nc1ccc2nnc([C@@H](C)NC(=O)c3nc(-c4ccc(NC(C)=O)cc4)cnc3N)n2n1` (stereo partly shown) [Compound 26]: the Ki was 250 to 2500 nM.
In the case of `C[C@@H](NC(=O)c1nc(-c2cnn(C)c2)cnc1N)c1nnc2ccc(Nc3cccc(Cl)c3)nn12` [Compound 27], the Ki was at most 250 nM.
With `C[C@H](NC(=O)c1nc(-c2ccccc2)cnc1N)c1nnc2ccc(Nc3cccc(Cl)c3)nn12` [Compound 28], the Ki fell in the range of 250 to 2500 nM.
For `C[C@@H](NC(=O)c1nc(-c2cccs2)cnc1N)c1nnc2ccc(Nc3cccc(Cl)c3)nn12` [Compound 29] the value was at most 250 nM.
The figure for `Nc1ncc(-c2ccccc2)nc1C(=O)N[C@H](CO)c1nnc2ccc(Nc3cccc(Cl)c3)nn12` [Compound 30] is at most 250 nM; for `C[C@@H](NC(=O)c1nc(-c2ccsc2)cnc1N)c1nnc2ccc(Nc3cccc(Cl)c3)nn12` [Compound 31] it is at most 250 nM.
The compound `C[C@@H](NC(=O)c1nc(-c2ccoc2)cnc1N)c1nnc2ccc(Nc3cccc(Cl)c3)nn12` [Compound 32] came in with a Ki of at most 250 nM.
In turn, `C[C@@H](NC(=O)c1nc(C2=CCCC2)cnc1N)c1nnc2ccc(Nc3cccc(Cl)c3)nn12` [Compound 33] returned a Ki of at most 250 nM.
With `CC[C@@H](NC(=O)c1nc(-c2ccccc2)cnc1N)c1nnc2ccc(Nc3cccc(Cl)c3)nn12` [Compound 34], the Ki fell in the range of 250 to 2500 nM.
Consider `CC(C)[C@@H](NC(=O)c1nc(-c2ccccc2)cnc1N)c1nnc2ccc(Nc3cccc(Cl)c3)nn12` [Compound 35], for which the Ki is over 2500 nM.
In turn, `C#Cc1cnc(N)c(C(=O)N[C@H](C)c2nnc3ccc(Nc4cccc(Cl)c4)nn23)n1` [Compound 36] gave a Ki of at most 250 nM.
The compound `C=Cc1cnc(N)c(C(=O)N[C@H](C)c2nnc3ccc(Nc4cccc(Cl)c4)nn23)n1` [Compound 37] showed a Ki of at most 250 nM.
Turning to `C[C@@H](NC(=O)c1nc(C#N)cnc1N)c1nnc2ccc(Nc3cccc(Cl)c3)nn12` [Compound 38], the Ki was at most 250 nM.
For `C[C@@H](NC(=O)c1nc(C(N)=O)cnc1N)c1nnc2ccc(Nc3cccc(Cl)c3)nn12` [Compound 39] the value was at most 250 nM; for `C[C@@H](NC(=O)c1nc(C2CCCC2)cnc1N)c1nnc2ccc(Nc3cccc(Cl)c3)nn12` [Compound 40], at most 250 nM.
As for `C[C@@H](NC(=O)c1nc(-c2cccnc2)cnc1N)c1nnc2ccc(Nc3cccc(Cl)c3)nn12` [Compound 41], the Ki was at most 250 nM.
Take `C[C@@H](NC(=O)c1nc(-c2ccncc2)cnc1N)c1nnc2ccc(Nc3cccc(Cl)c3)nn12` [Compound 42]: the Ki is at most 250 nM.
With `C[C@@H](NC(=O)c1nc(C#CCO)cnc1N)c1nnc2ccc(Nc3cccc(Cl)c3)nn12` [Compound 43], the Ki was at most 250 nM.
For `C[C@@H](NC(=O)c1nc(C#CCCO)cnc1N)c1nnc2ccc(Nc3cccc(Cl)c3)nn12` [Compound 44], the Ki is at most 250 nM.
The compound `C[C@@H](NC(=O)c1nc(C#CC2(O)CCCC2)cnc1N)c1nnc2ccc(Nc3cccc(Cl)c3)nn12` [Compound 45] yielded a Ki of 250 to 2500 nM.
Compound `CCC(O)C#Cc1cnc(N)c(C(=O)N[C@H](C)c2nnc3ccc(Nc4cccc(Cl)c4)nn23)n1` (stereo partly shown) [Compound 46] displayed a Ki of at most 250 nM.
Consider `CCN(CC)CC#Cc1cnc(N)c(C(=O)N[C@H](C)c2nnc3ccc(Nc4cccc(Cl)c4)nn23)n1` [Compound 47], for which the Ki is at most 250 nM.
`C[C@@H](NC(=O)c1nc(C#Cc2ccccc2)cnc1N)c1nnc2ccc(Nc3cccc(Cl)c3)nn12` [Compound 48] registered a Ki of 250 to 2500 nM.
For `C[C@@H](NC(=O)c1nc(C#CCC2CCCC2)cnc1N)c1nnc2ccc(Nc3cccc(Cl)c3)nn12` [Compound 49] the value was 250 to 2500 nM.
Regarding `CCCC#Cc1cnc(N)c(C(=O)N[C@H](C)c2nnc3ccc(Nc4cccc(Cl)c4)nn23)n1` [Compound 50], the Ki lay in the range of 250 to 2500 nM.
In the case of `C[C@@H](NC(=O)c1nc(C#CC(C)(C)C)cnc1N)c1nnc2ccc(Nc3cccc(Cl)c3)nn12` [Compound 51], the Ki was in the range of 250 to 2500 nM.
In the case of `CCc1cnc(N)c(C(=O)N[C@H](C)c2nnc3ccc(Nc4cccc(Cl)c4)nn23)n1` [Compound 52], the inhibition constant (Ki) fell in the range of 250 to 2500 nM.
Take `C[C@@H](NC(=O)c1nc(C#Cc2ccccn2)cnc1N)c1nnc2ccc(Nc3cccc(Cl)c3)nn12` [Compound 53]: the Ki lay in the range of 250 to 2500 nM.
In turn, `Cc1n[nH]c(C)c1-c1cnc(N)c(C(=O)N[C@H](C)c2nnc3ccc(Nc4cccc(Cl)c4)nn23)n1` [Compound 54] yielded a Ki of at most 250 nM.
In turn, `C[C@@H](NC(=O)c1nc(-c2ccc(CN3CCCC3)cc2)cnc1N)c1nnc2ccc(Nc3cccc(Cl)c3)nn12` [Compound 55] showed a Ki of at most 250 nM.
The figure for `C[C@@H](NC(=O)c1nc(C#Cc2cccnc2)cnc1N)c1nnc2ccc(Nc3cccc(Cl)c3)nn12` [Compound 56] is 250 to 2500 nM.
Take `C[C@@H](NC(=O)c1nc(C#Cc2ccncc2)cnc1N)c1nnc2ccc(Nc3cccc(Cl)c3)nn12` [Compound 57]: the Ki fell in the range of 250 to 2500 nM.
As to `CC(=O)Nc1cccc(-c2cnc(N)c(C(=O)N[C@H](C)c3nnc4ccc(Nc5cccc(Cl)c5)nn34)n2)c1` [Compound 58], the Ki was at most 250 nM.
`C[C@@H](NC(=O)c1nc(C#CC2CC2)cnc1N)c1nnc2ccc(Nc3cccc(Cl)c3)nn12` [Compound 61]: the Ki fell in the range of 250 to 2500 nM.

(Values after patent publication US8481538B2, “Heterocyclic inhibitors of c-Met and uses thereof” (Vertex Pharmaceuticals Incorporated, priority 2006, dated 2013).)
